Source: ChEMBL document CHEMBL6153135, “Rational Design of a Potent, Selective, and Metabolically Stable CDK9 Inhibitor to Counteract Osimertinib Resistance through Mcl-1 Suppression and Enhanced BRD4 Co-Targeting” (J Med Chem, 2025)
Active and inactive are the calls of the source. No cut-off for these calls is given here.

Legend:
[1] = system: Osimertinib-resistant HCC827 cell; experiment: Inhibition of cell cycle regulation in human Osimertinib-resistant HCC827 cells by KEGG analysis; assay type: functional, cell-based
[2] = Drug concentration in lung of BALB-c nude mouse xenografted with human NCI-H1975 cells at 15 mg/kg, iv measured after 30 mins by LC-MS/MS analysis; assay type: ADME, organism-based; conditions: read-out: Ct
[3] = system: Osimertinib-resistant NCI-H1975 cell; experiment: Induction of apoptosis in human Osimertinib-resistant NCI-H1975 cells assessed as early apoptotic cells at 2 uM incubated for 16 hrs by Annexin V-FITC/PI staining based flow cytometry (reference value: 8.02 %); assay type: functional
[4] = Half life in Sprague-Dawley rat at 2 mg/kg, iv; assay type: ADME, organism-based; conditions: in vivo
[5] = Half life in BALB/c mouse at 15 mg/kg, po; assay type: ADME, organism-based; conditions: in vivo
[6] = Anti-proliferative activity against human Osimertinib-resistant HCC827 cells assessed as cell inhibition measured after 72 hrs in presence of 100 nM JQ1 by MTT assay; assay type: functional, cell-based
[7] = biological target: CDK2/Cyclin A2 (Homo sapiens) (UniProt P24941+P20248); experiment: Inhibition of CDK2/Cyclin A2 (unknown origin) at 100 nM preincubated for 10 mins followed by substrate/ATP measured after 60 mins by ADP-Glo assay relative to control; assay type: protein-complex assay; conditions: time 70.0 min
[8] = AUC (0 to t) in BALB/c mouse at 15 mg/kg, po; assay type: ADME, organism-based; conditions: in vivo
[9] = C0 in BALB/c mouse at 2 mg/kg, iv; conditions: in vivo
[10] = Clearance in Sprague-Dawley rat at 2 mg/kg, iv; assay type: ADME, organism-based; conditions: in vivo
[11] = Anti-proliferative activity against human Osimertinib-resistant HCC827 cells assessed as cell inhibition measured after 72 hrs in presence of 500 nM JQ1 by MTT assay; assay type: functional, cell-based
[12] = Clearance in BALB/c mouse at 2 mg/kg, iv; assay type: ADME, organism-based; conditions: in vivo
[13] = Metabolic stability in dog liver microsomes assessed as half life measured for 5 to 60 mins by LC-MS/MS analysis; assay type: ADME, Canis lupus familiaris, Microsome; conditions: time 5-60 min
[14] = system: Osimertinib-resistant NCI-H1975 cell; experiment: Induction of apoptosis in human Osimertinib-resistant NCI-H1975 cells assessed as viable cells at 2 uM incubated for 16 hrs by Annexin V-FITC/PI staining based flow cytometry (reference value: 89.4 %); assay type: functional; conditions: read-out: Activity
[15] = system: Osimertinib-resistant HCC827 cell; experiment: Inhibition of stem cell multi-functionality signaling in human Osimertinib-resistant HCC827 cells by KEGG analysis; assay type: functional, cell-based
[16] = system: Lung adenocarcinoma organoid; experiment: Anti-tumor activity against Osimertinib-resistant patient (#0085)-derived human Lung adenocarcinoma organoid assessed as inhibition of cell viability measured after 96 hrs; assay type: functional, tissue-based; conditions: Neoplasm
[17] = system: Lung adenocarcinoma organoid; experiment: Anti-tumor activity against patient (#2514)-derived human Lung adenocarcinoma organoid assessed as inhibition of cell viability measured after 96 hrs relative to control; assay type: functional, Neoplasm
[18] = Apparent volume of distribution in Sprague-Dawley rat at 2 mg/kg, iv; assay type: ADME, organism-based; conditions: in vivo, read-out: Vz
[19] = Half life in Sprague-Dawley rat at 20 mg/kg, po; assay type: ADME, organism-based; conditions: in vivo
[20] = system: Lung adenocarcinoma organoid; experiment: Anti-tumor activity against multidrug-resistant patient (#2663)-derived human Lung adenocarcinoma organoid assessed as inhibition of cell viability measured after 96 hrs; assay type: functional, tissue-based; conditions: Neoplasm
[21] = Apparent volume of distribution in BALB/c mouse at 15 mg/kg, po; assay type: ADME, organism-based; conditions: in vivo
[22] = system: Osimertinib-resistant NCI-H1975 cell; experiment: Inhibition of colony formation in human Osimertinib-resistant NCI-H1975 cells at 25 nM measured after 14 days by crystal violet staining based analysis relative to control; assay type: functional; conditions: 336 h, time 14 day
[23] = biological target: CDK9/cyclin T1 (Homo sapiens) (UniProt O60563+P50750); experiment: Inhibition of CDK9/cyclin T1 (unknown origin) at 100 nM preincubated for 10 mins followed by substrate/ATP measured after 60 mins by ADP-Glo assay relative to control; assay type: protein-complex assay; conditions: time 70.0 min
[24] = Metabolic stability in pig liver microsomes assessed as half life measured for 5 to 60 mins by LC-MS/MS analysis; assay type: ADME, Sus scrofa, Microsome; conditions: time 5-60 min
[25] = system: Osimertinib-resistant NCI-H1975 cell; experiment: Induction of apoptosis in human Osimertinib-resistant NCI-H1975 cells assessed as viable cells at 0.5 uM incubated for 16 hrs by Annexin V-FITC/PI staining based flow cytometry (reference value: 89.4 %); assay type: functional; conditions: read-out: Activity
[26] = AUC (0 to infinity) in Sprague-Dawley rat at 20 mg/kg, po; assay type: ADME, organism-based; conditions: in vivo
[27] = system: Osimertinib-resistant HCC827 cell; experiment: Inhibition of chromosome organisation in human Osimertinib-resistant HCC827 cells by KEGG analysis; assay type: functional, cell-based
[28] = AUC (0 to infinity) in BALB/c mouse at 15 mg/kg, po; assay type: ADME, organism-based; conditions: in vivo
[29] = biological target: Cyclin-dependent kinase 9 (Homo sapiens) (UniProt P50750); experiment: Inhibition of CDK9 in human Osimertinib-resistant NCI-H1975 cells assessed as decrease in p-RNAPII-ser2 level incubated for 12 hrs by Western blot analysis; assay type: cell-based; conditions: Osimertinib-resistant NCI-H1975 cell, dose 50-500 nM
Sequence of Cyclin-dependent kinase 9 (Homo sapiens) (P50750 whole entry): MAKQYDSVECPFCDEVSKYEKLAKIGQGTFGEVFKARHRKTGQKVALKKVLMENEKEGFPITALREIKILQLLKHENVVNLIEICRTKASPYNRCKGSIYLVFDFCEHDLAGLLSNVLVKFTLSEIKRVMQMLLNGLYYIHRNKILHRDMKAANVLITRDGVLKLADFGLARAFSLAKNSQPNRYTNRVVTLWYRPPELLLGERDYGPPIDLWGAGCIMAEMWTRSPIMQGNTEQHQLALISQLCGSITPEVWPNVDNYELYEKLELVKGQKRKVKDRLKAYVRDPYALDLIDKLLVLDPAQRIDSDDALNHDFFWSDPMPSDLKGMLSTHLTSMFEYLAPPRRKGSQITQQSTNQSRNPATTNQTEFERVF

NCI-H596 = experiment: Anti-proliferative activity against human NCI-H596 cells assessed as cell inhibition measured after 72 hrs by MTT assay; assay type: functional, cell-based; conditions: NCI-H596, 72 h
[30] = system: Osimertinib-resistant HCC827 cell; experiment: Upregulation of c-Myc mRNA level in human Osimertinib-resistant HCC827 cells by RNA-Seq analysis; assay type: functional, cell-based
[31] = AUC (0 to t) in Sprague-Dawley rat at 20 mg/kg, po; assay type: ADME, organism-based; conditions: in vivo
[32] = system: Osimertinib-resistant HCC827 cell; experiment: Upregulation of c-Myc level in human Osimertinib-resistant HCC827 cells at 100 to 500 nM incubated for 12 hrs by Western blot analysis; assay type: functional, cell-based; conditions: dose 100-500 nM
[33] = system: Osimertinib-resistant NCI-H1975 cell; experiment: Induction of apoptosis in human Osimertinib-resistant NCI-H1975 cells assessed as necrotic cells at 0.5 uM incubated for 16 hrs by Annexin V-FITC/PI staining based flow cytometry (reference value: 1.17 %); assay type: functional
[34] = Metabolic stability in human liver microsomes assessed as clearance measured for 5 to 60 mins by LC-MS/MS analysis; assay type: ADME, Microsome; conditions: time 5-60 min, read-out: CLH
[35] = Half life in BALB/c mouse at 2 mg/kg, iv; assay type: ADME, organism-based; conditions: in vivo
[36] = system: Lung adenocarcinoma organoid; experiment: Anti-tumor activity against Almonertinib-resistant patient (#2566)-derived human Lung adenocarcinoma organoid assessed as inhibition of cell viability measured after 96 hrs; assay type: functional, tissue-based; conditions: Neoplasm
HCC827 = experiment: Anti-proliferative activity against human HCC827 cells assessed as cell inhibition measured after 72 hrs in presence of 250 nM JQ1 by MTT assay; assay type: functional, cell-based; conditions: HCC827, 72 h
[37] = Toxicity in BALB-c mouse xenografted with human Osimertinib-resistant HCC827 cells assessed as decrease in body weight at 5 mg/kg, iv in presence of JQ1; assay type: organism-based; conditions: in vivo
[38] = system: Lung adenocarcinoma organoid; experiment: Anti-tumor activity against Osimertinib-resistant patient (#0085)-derived human Lung adenocarcinoma organoid assessed as inhibition of cell viability measured after 96 hrs relative to control; assay type: functional, Neoplasm
[39] = biological target: Cyclin-dependent kinase 9 (Homo sapiens) (UniProt P50750); experiment: Inhibition of CDK9 in human Osimertinib-resistant NCI-H1975 cells assessed as decrease in Mcl-1 level incubated for 12 hrs by Western blot analysis; assay type: cell-based; conditions: Osimertinib-resistant NCI-H1975 cell, dose 50-500 nM
[40] = system: Lung adenocarcinoma organoid; experiment: Anti-tumor activity against patient (#2223)-derived human Lung adenocarcinoma organoid assessed as inhibition of cell viability measured after 96 hrs relative to control; assay type: functional, Neoplasm

For `CC(=O)N1CCC(NC(=O)c2ccc3cc2OCCCCCCOc2cc(ccc2F)-c2nc(ncc2F)N3)CC1`, the inhibition [1] was “Active”, the concentration at 0.5 h [2] was 6650 ng/mL and the Activity [3] was 26%. For the same compound, the half-life [4] was 1.57 h, the half-life [5] was 3.5 h and the IC50 [6] was 31.6 nM. For the same compound, the inhibition [7] was 17.8%, the AUC(0-t) [8] was 754 ng·h/mL and the C0 [9] was 1206.2 ng/mL. It also gave a clearance [10] of 13.3 mL/min/kg, an IC50 [11] of 5.2 nM and a clearance [12] of 83.3 mL/min/kg. The half-life [13] was 1.25 h, the viability at 2 µM [14] was 51% and the inhibition [15] was “Active”. The IC50 [16] was 44.7 nM, the Imax [17] was 99.9% and the Vd [18] was 1.9 L/kg. For the same compound, the half-life [19] was 6.7 h, the IC50 [20] was < 50 nM and the Vz [21] was 109.3 L/kg. For the same compound, the inhibition at 0.025 µM [22] was 100%, the inhibition [23] was 97.3% and the half-life [24] was 0.655 h. The viability at 0.5 µM [25] was 63.1%, the AUC(0-inf) [26] was 5960 ng·h/mL and the inhibition [27] was “Active”. For the same compound, the AUC(0-inf) [28] was 766 ng·h/mL, the inhibition [29] was “Dose-dependent-effect” and the IC50 (NCI-H596) was 90 nM. The Activity [30] was “Active”, the AUC(0-t) [31] was 3610 ng·h/mL and the Activity [32] was “Active”. For the same compound, the Activity [33] was 1.46%, the microsomal CLint [34] was 10.8 µL/min/mg and the half-life [35] was 4.2 h. For the same compound, the IC50 [36] was 48.3 nM, the IC50 (HCC827) was 19.3 nM and the Activity [37] was “Non-toxic”. The Imax [38] was >98%, the inhibition [39] was “Dose-dependent-effect” and the Imax [40] was 99.9%.
